Numbering of substitutions follows the chain as printed. Read-outs that look alike come from different tables or passages of the source.
Key:
Format in all cases: binding
Estrogen Erα = Estrogen Erα (Homo sapiens, UniProt P03372); assay: Eurofins Diversity Panel; settings: hum, Conc. 10 μM
[1] = target: RSK1(Kin.Dom.2-C-terminal) (Homo sapiens, UniProt Q15418); assay: KINOMEscan: RSK1(Kin.Dom.2-C-terminal); settings: 100 nM, read-out: Percent Control
LTK = LTK (Homo sapiens, UniProt P29376); assay: KINOMEscan: LTK; settings: 1000 nM, read-out: Percent Control
GRK1 = GRK1 (Homo sapiens, UniProt Q15835); assay: KINOMEscan: GRK1; settings: 1000 nM, read-out: Percent Control
GRK1, sequence (Q15835 whole entry): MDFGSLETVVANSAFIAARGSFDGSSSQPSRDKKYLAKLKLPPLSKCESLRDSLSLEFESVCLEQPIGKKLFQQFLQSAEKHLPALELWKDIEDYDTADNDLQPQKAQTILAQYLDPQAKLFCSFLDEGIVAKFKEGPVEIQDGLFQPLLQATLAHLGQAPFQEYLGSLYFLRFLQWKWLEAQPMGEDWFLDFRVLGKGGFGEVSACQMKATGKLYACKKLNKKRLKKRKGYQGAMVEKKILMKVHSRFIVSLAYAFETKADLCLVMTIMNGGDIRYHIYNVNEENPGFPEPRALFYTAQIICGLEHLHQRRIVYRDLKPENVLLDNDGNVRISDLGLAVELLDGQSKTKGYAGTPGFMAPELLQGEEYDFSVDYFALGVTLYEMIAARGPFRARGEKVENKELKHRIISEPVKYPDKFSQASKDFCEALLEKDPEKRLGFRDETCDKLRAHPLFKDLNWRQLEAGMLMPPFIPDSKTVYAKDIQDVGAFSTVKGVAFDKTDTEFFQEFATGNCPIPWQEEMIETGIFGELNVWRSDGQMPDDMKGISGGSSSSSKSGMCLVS

RIOK1 = RIOK1 (Homo sapiens, UniProt Q9BRS2); assay: KINOMEscan: RIOK1; settings: 100 nM, read-out: Percent Control
RIOK1, sequence (Q9BRS2 whole entry): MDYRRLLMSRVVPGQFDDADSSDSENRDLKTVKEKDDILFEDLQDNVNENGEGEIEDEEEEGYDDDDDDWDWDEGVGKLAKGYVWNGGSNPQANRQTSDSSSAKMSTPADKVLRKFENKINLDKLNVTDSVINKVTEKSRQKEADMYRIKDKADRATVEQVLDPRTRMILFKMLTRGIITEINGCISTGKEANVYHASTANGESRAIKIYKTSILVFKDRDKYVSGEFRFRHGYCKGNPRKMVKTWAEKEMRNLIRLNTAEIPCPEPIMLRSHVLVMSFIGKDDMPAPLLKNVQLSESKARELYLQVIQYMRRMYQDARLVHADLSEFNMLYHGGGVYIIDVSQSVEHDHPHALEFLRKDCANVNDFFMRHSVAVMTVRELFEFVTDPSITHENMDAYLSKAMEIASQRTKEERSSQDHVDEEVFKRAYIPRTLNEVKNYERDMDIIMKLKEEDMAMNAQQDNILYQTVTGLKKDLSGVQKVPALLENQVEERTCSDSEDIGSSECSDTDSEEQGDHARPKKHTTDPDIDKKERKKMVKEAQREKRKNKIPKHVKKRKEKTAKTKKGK

EGFR(L858R,T790M) = EGFR(L858R,T790M) (Homo sapiens, UniProt P00533, L858R/T790M); assay: KINOMEscan: EGFR(L858R,T790M); settings: 1000 nM, read-out: Percent Control
EGFR(L858R,T790M), sequence (P00533 25-1210 T790M/L858R): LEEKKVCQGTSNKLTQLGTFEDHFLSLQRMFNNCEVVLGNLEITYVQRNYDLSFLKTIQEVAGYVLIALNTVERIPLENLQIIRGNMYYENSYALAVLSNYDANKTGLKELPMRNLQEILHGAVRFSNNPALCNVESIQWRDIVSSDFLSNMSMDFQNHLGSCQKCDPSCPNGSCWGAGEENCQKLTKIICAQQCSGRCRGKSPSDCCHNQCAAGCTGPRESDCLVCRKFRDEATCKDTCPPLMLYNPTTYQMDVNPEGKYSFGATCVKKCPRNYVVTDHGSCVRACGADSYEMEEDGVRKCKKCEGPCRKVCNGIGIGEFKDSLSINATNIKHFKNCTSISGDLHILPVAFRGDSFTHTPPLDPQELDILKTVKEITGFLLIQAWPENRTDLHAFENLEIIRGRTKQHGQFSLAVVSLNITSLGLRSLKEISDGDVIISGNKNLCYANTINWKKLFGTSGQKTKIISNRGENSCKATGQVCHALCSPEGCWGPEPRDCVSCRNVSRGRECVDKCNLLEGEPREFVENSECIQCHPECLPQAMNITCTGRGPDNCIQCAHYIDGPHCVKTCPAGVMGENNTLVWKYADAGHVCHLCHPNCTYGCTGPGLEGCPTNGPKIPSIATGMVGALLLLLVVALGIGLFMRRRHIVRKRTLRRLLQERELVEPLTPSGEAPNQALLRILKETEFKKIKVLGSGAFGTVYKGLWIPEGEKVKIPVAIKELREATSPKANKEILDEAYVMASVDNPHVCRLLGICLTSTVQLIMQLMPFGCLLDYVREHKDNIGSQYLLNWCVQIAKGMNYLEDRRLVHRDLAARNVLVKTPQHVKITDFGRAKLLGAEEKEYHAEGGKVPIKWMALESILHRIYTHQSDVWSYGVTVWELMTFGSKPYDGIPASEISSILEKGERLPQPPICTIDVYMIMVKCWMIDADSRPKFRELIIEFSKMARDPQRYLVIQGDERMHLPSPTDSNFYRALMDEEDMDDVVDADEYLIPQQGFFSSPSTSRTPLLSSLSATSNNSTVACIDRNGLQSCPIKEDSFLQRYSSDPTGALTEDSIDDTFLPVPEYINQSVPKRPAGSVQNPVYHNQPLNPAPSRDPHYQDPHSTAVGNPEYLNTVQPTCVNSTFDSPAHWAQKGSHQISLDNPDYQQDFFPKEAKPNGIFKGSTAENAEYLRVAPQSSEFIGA

HASPIN = HASPIN (Homo sapiens, UniProt Q8TF76); assay: KINOMEscan: HASPIN; settings: 1000 nM, read-out: Percent Control
HASPIN, sequence (Q8TF76 whole entry): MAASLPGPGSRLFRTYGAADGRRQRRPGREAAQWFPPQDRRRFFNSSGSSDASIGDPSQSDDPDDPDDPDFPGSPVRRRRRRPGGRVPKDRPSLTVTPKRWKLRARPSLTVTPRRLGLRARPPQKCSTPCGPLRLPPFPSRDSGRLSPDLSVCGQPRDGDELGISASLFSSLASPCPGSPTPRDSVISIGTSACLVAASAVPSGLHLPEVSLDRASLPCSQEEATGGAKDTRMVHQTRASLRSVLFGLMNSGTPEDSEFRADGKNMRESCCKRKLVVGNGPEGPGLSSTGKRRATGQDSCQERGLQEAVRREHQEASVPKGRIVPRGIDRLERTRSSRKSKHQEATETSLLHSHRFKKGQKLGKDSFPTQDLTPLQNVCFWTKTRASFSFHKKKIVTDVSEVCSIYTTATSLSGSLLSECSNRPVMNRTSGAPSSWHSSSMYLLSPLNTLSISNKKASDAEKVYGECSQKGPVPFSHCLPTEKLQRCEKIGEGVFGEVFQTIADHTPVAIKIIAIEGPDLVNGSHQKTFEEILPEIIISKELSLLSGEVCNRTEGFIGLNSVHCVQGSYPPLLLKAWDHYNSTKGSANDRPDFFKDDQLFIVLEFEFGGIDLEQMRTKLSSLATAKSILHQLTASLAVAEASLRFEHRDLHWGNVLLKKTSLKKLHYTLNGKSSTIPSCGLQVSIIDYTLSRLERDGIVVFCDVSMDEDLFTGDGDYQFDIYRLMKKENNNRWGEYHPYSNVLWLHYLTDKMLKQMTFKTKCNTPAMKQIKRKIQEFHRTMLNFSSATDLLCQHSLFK

SRC = SRC (Homo sapiens, UniProt P12931); assay: KINOMEscan: SRC; settings: 100 nM, read-out: Percent Control
PKNB(M.tuberculosis) = PKNB(M.tuberculosis) (Mycobacterium tuberculosis, UniProt P9WI81); assay: DiscoverX KINOMEscan kinase profiling; settings: kinase PKNB(M.tuberculosis) (Entrez pknB); compound concentration 1000 nM; read-out: Percent Control
PKNB(M.tuberculosis), sequence (P9WI81 whole entry): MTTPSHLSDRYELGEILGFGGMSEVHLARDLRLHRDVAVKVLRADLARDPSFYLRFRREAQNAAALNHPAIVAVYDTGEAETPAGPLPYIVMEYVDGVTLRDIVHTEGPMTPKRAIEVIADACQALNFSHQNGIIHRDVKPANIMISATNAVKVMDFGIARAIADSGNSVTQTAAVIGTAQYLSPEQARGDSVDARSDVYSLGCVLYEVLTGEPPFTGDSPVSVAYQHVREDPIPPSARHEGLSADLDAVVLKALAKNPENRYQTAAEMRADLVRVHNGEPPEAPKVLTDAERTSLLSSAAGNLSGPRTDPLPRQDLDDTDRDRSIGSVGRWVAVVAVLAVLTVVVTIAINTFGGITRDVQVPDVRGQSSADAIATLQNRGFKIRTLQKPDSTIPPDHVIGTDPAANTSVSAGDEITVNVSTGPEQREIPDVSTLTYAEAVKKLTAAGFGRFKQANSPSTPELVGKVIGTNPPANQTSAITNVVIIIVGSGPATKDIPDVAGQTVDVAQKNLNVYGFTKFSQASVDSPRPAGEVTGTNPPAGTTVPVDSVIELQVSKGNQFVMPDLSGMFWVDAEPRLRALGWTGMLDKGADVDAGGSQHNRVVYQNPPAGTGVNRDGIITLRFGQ

DAPK1 = DAPK1 (Homo sapiens, UniProt P53355); assay: KINOMEscan: DAPK1; settings: 1000 nM, read-out: Percent Control
[2] = target: RPS6KA4(Kin.Dom.2-C-terminal) (Homo sapiens, UniProt O75676); assay: KINOMEscan: RPS6KA4(Kin.Dom.2-C-terminal); settings: 100 nM, read-out: Percent Control
RPS6KA4(Kin.Dom.2-C-terminal), sequence (O75676 372-772 limits assumed): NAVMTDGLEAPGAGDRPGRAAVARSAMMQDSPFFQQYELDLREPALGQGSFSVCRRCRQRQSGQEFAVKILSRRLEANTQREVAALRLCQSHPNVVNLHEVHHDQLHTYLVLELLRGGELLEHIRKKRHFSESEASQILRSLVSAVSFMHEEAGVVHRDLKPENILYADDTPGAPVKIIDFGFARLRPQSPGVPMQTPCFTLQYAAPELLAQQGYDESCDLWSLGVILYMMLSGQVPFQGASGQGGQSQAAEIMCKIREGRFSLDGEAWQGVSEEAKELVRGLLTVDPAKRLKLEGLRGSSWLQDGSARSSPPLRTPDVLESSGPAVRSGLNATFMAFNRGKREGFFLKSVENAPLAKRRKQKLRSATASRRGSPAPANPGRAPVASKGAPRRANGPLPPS

JNK3 = JNK3 (Homo sapiens, UniProt P53779); assay: KINOMEscan: JNK3; settings: 1000 nM, read-out: Percent Control
ABL1 [3] = target: ABL1 (Homo sapiens, UniProt P00519, Y253F); assay: KINOMEscan: ABL1; settings: ABL1(Y253F)-phosphorylated, read-out: Percent Control
Procedure: (§1) The structure and synthesis of VIP152 were recently described by Lücking et al.. (Fig. 1A); however, the selectivity of the molecule in cellular systems has yet to be explored. […] We also performed this experiment at 1000 nM, where CDK9 was inhibited at 99%. […] We found a strong concordance between our data and those of Lücking when comparing the most inhibited kinases. Potential off-target effects of VIP152 were next tested in vitro at a concentration of 10 µM for off-target activity against a broad range of receptors, transporters, ion channels, and enzymes (n = 138) using the Eurofins Diversity Panel.
(§2) Kinomescan Kinase Profiling Assay
(§3) Kinomescan Assay was performed at DiscoverRX and described in Fabian, et al. 2005, Nat.
(§4) Biotechnol. In brief, kinases were produced and subsequently tagged with DNA for qPCR detection.
(§5) Streptavidin-coated magnetic beads were bound to biotinylated kinase ligands to serve as a solid support.
(§6) VIP152 was dissolved in DMSO and tested across a 10 serial threefold dilution set and compared to a test compound and a DMSO control. Kinases which were inhibited by VIP152 would not be bound to the solid-support resulting in decreased substrate for the qPCR reaction. Kinome map was produced via TreeSpot Analysis from DiscoverRX. […]

ABL1 [4] = target: ABL1 (Homo sapiens, UniProt P00519); assay: KINOMEscan: ABL1; settings: read-out: Percent Control; for remaining binding at 0.1 µM: 100 nM; for remaining binding at 1 µM: 1000 nM
Procedure: as §1, §2, §3, §4, §5, §6

ABL1 [5] = target: T1, ABL1 (Homo sapiens, UniProt P00519, F317I); assay: KINOMEscan: ABL1; settings: read-out: Percent Control; for remaining binding at 0.1 µM: 100 nM; for remaining binding at 1 µM: 1000 nM
T1 sequence (P00519 229-512 F317I): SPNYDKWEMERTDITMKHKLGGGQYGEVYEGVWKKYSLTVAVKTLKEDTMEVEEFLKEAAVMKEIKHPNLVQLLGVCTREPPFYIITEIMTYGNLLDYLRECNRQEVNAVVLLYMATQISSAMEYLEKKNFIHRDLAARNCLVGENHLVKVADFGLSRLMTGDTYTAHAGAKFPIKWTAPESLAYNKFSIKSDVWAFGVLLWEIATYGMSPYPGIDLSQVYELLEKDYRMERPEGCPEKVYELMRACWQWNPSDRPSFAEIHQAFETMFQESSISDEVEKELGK
Procedure: as §1, §2, §3, §4, §5, §6

ABL1 [6] = target: ABL1 (Homo sapiens, UniProt P00519, E255K); assay: KINOMEscan: ABL1; settings: ABL1(E255K)-phosphorylated, read-out: Percent Control
Procedure: as §1, §2, §3, §4, §5, §6

ABL1 [7] = target: T2, ABL1 (Homo sapiens, UniProt P00519, H396P); assay: KINOMEscan: ABL1; settings: read-out: Percent Control; for remaining binding at 0.1 µM: 100 nM; for remaining binding at 1 µM: 1000 nM
T2 sequence (P00519 229-512 H396P): T1 sequence (P00519 229-512 F317I) with I89F, H168P
Procedure: as §1, §2, §3, §4, §5, §6

ABL1 [8] = target: ABL1 (Homo sapiens, UniProt P00519, M351T); assay: KINOMEscan: ABL1; settings: ABL1(M351T)-phosphorylated, read-out: Percent Control
Procedure: as §1, §2, §3, §4, §5, §6

TAOK1 = TAOK1 (Homo sapiens, UniProt Q7L7X3); assay: KINOMEscan: TAOK1; settings: 100 nM, read-out: Percent Control
DDR2 = DDR2 (Homo sapiens, UniProt Q16832); assay: KINOMEscan: DDR2; settings: 1000 nM, read-out: Percent Control
KIT-autoinhibited = KIT-autoinhibited (Homo sapiens, UniProt P10721); assay: KINOMEscan: KIT-autoinhibited; settings: 1000 nM, read-out: Percent Control
AURKA = AURKA (Homo sapiens, UniProt O14965); assay: KINOMEscan: AURKA; settings: 1000 nM, read-out: Percent Control
AURKA, sequence (O14965 whole entry): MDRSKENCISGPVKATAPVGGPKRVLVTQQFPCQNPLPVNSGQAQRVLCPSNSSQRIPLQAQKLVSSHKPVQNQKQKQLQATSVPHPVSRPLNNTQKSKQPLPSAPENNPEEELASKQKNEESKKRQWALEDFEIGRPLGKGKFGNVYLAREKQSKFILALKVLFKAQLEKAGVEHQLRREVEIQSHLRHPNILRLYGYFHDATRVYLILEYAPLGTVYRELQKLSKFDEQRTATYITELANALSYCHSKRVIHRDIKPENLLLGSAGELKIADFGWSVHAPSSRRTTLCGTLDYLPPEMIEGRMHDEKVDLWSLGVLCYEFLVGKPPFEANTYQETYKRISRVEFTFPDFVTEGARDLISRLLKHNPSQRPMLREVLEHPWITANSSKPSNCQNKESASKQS

RSK1(Kin.Dom.2-C-terminal), sequence (Q15418 392-735 limits assumed): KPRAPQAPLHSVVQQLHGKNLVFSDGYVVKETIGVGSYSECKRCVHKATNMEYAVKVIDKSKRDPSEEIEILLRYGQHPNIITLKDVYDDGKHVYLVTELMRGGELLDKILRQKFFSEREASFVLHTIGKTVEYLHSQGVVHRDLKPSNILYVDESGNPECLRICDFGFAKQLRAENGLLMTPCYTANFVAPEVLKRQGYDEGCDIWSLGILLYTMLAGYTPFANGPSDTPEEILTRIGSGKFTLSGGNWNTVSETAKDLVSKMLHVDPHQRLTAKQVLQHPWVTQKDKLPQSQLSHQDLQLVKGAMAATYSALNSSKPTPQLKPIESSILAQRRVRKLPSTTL

SMILES: COc1cc(F)ccc1-c1cc(Nc2cc(CS(C)(=N)=O)ccn2)ncc1F (stereo not shown) [VIP152]
- inhibition at 10 µM (Estrogen Erα): 6%
- remaining binding at 0.1 µM [1]: 100%
- remaining binding at 1 µM (LTK): 100%
- remaining binding at 1 µM (GRK1): 88%
- remaining binding at 0.1 µM (RIOK1): 100%
- remaining binding at 1 µM (EGFR(L858R,T790M)): 81%
- remaining binding at 1 µM (HASPIN): 99%
- remaining binding at 0.1 µM (SRC): 100%
- remaining binding at 1 µM (PKNB(M.tuberculosis)): 100%
- remaining binding at 1 µM (DAPK1): 87%
- remaining binding at 0.1 µM [2]: 100%
- remaining binding at 1 µM (JNK3): 82%
- remaining binding at 0.1 µM (ABL1 [3]; 100 nM): 100%
- remaining binding at 1 µM (ABL1 [3]; 1000 nM): 45%
- remaining binding at 0.1 µM (ABL1 [4]; ABL1-nonphosphorylated): 64%
- remaining binding at 1 µM (ABL1 [4]; ABL1-nonphosphorylated): 21%
- remaining binding at 0.1 µM (ABL1 [4]; ABL1-phosphorylated): 73%
- remaining binding at 1 µM (ABL1 [4]; ABL1-phosphorylated): 54%
- remaining binding at 0.1 µM (ABL1 [5]; ABL1(F317I)-nonphosphorylated): 100%
- remaining binding at 1 µM (ABL1 [5]; ABL1(F317I)-nonphosphorylated): 84%
- remaining binding at 0.1 µM (ABL1 [5]; ABL1(F317I)-phosphorylated): 95%
- remaining binding at 1 µM (ABL1 [5]; ABL1(F317I)-phosphorylated): 33%
- remaining binding at 0.1 µM (ABL1 [6]; 100 nM): 83%
- remaining binding at 1 µM (ABL1 [6]; 1000 nM): 48%
- remaining binding at 0.1 µM (ABL1 [7]; ABL1(H396P)-nonphosphorylated): 70%
- remaining binding at 1 µM (ABL1 [7]; ABL1(H396P)-nonphosphorylated): 7.6%
- remaining binding at 0.1 µM (ABL1 [7]; ABL1(H396P)-phosphorylated): 100%
- remaining binding at 1 µM (ABL1 [7]; ABL1(H396P)-phosphorylated): 52%
- remaining binding at 0.1 µM (ABL1 [8]; 100 nM): 86%
- remaining binding at 1 µM (ABL1 [8]; 1000 nM): 43%
- remaining binding at 0.1 µM (TAOK1): 92%
- remaining binding at 1 µM (DDR2): 27%
- remaining binding at 1 µM (KIT-autoinhibited): 100%
- remaining binding at 1 µM (AURKA): 41%
